Source: patent publication US7407963B2, “Cyclopropane CGRP antagonists, medicaments containing these compounds, and method for the production thereof” (Boehringer Ingelheim Pharma GmbH & Co. KG, priority 1999, dated 2008)

| melting point | SMILES |
| --- | --- |
| 272 to 273 °C | O=C(c1ccc(Cl)cc1)[C@H]1C[C@H]1C(=O)N1CCC(N2Cc3ccccc3NC2=O)CC1 (relative stereo) [Item No. 1, cis-3-{1-[2-(4-chlorobenzoyl)cyclopropanecarbonyl]-4-piperidinyl}-3,4-dihydro-2(1H)-quinazolinone] |
| 235 °C | CN(C)CCOc1ccc2c(c1)CN(C1CCN(C(=O)[C@@H]3C[C@H]3C(=O)c3cc(Br)c(N)c(Br)c3)CC1)C(=O)N2 (relative stereo) [Item No. 16, trans-3-{1-[2-(4-amino-3,5-dibromobenzoyl)cyclopropanecarbonyl]-4-piperidinyl}-3,4-dihydro-6-[2-(dimethylamino)ethoxy]-2(1H)-quinazolinone] |
| 248 °C | Nc1c(Br)cc(C(=O)[C@@H]2C[C@H]2C(=O)N2CCC(n3cc(-c4ccccc4C(F)(F)F)[nH]c3=O)CC2)cc1Br (relative stereo) [Item No. 18, trans-1-{1-[2-(4-amino-3,5-dibromobenzoyl)cyclopropanecarbonyl]-4-piperidinyl}-1,3-dihydro-4-[2-(trifluoromethyl)phenyl]-2(2H)-imidazolone] |
